Assay results taken from patent publication US20050003998A1, “Therapeutic use of selective LXR modulators” (priority 2002, published 2005).
“Also recorded” adds a separate entry of the source.

Columns and labels:
[1] = tested on: mouse adult neural stem cells derived from the lateral ventricle wall; test: Intracellular ATP assay on adult mouse neurosphere cultures; type: cell-based; conditions: for intracellular ATP levels, and hence cell number (adult mouse NSC proliferation or survival in vitro): 3 days, non-adherent conditions, values normalized to the vehicle (100%)
Protocol: The anterior lateral wall of the lateral ventricle of 5-6 week old mice was enzymatically dissociated in 0.8mg/ml hyaluronidase and 0.5 mg/ml trypsin in DMEM containing 4.5 mg/ml glucose and 80units/ml DNase at 37° C. for 20 min. The cells were gently triturated and mixed with three volumes of Neurosphere medium (DMEM/F12, B27 supplement, 12.5 mM HEPES pH7.4) containing 20 ng/ml EGF (unless otherwise stated), 100units/ml penicillin and 100 μg/ml streptomycin. After passing through a 70 μm strainer, the cells were pelleted at 160×g for 5 min. The supernatant was subsequently removed and the cells resuspended in Neurosphere medium supplemented as above, plated out in culture dishes and incubated at 37° C. Neurospheres were ready to be split approximately 7 days after plating.
To split neurosphere cultures, neurospheres were collected by centrifugation at 160×g for 5 min. The neurospheres were resuspended in 0.5 ml Trypsin/EDTA in HBSS (1×), incubated at 37° C. for 2 min and triturated gently to aid dissociation. Following a further 3 min incubation at 37° C. and trituration, 3 volumes of ice cold NSPH-media-EGF were added to stop further trypsin activity. The cells were pelleted at 220×g for 4 min, resuspended in fresh Neurosphere medium supplemented with 20 ng/ml EGF and 1 nM bFGF plated out and incubated at 37° C.
Mouse neurospheres, cultured as described above, from passage 2, were seeded in DMEM/F12 supplemented with B27 into a 96-well plate as single cells (10000 cells/well) to the substances to be measured were added at the concentrations indicated. After 3 days incubation, intracellular ATP was measured using the ATP-SL kit from BioThema, Sweden, according to the manufacturer's instructions. The LXR agonists: 5-Cholesten-24(s), 25-epoxy-3b-ol were purchased from Steraloids (no C6640-000): TO-901317 were purchased from Sigma-Aldrich (no T2320). The RXR agonist cis-4,7,10,13,16,19-Docosahexaenoic acid (DHA) were purchased from Sigma-Aldrich (no 43938). […]

irritant dermatitis = conditions: phorbol 12-myristate-13-acetate on ears of CD1 mice; cited from earlier work
phospholipase A2 (PLA2) = conditions: cited from earlier work; for PLA2 enzymatic activity / PLA2 mRNA: rat smooth muscle cells
[2] = tested on: rat pheochromocytoma cells; conditions: cited from earlier work
[3] = tested on: beta-amyloid induced apoptosis; conditions: Alzheimer's disease; cited from earlier work
cells in the LVW [4] = test: Oral administration of TO-901317 in chow, BrdU incorporation in the lateral ventricle wall; type: in vivo, C57BL/6J male mice; conditions: 4.3 and 43 mg/kg/day, mouse
Protocol: (§1) C57BL/6J male mice were housed under controlled temperature and humidity and had free access to water and chow. 40 mice were divided into 5 groups (n=8). Group 1 received chow mixed with 0.025% T0901317 (Sigma-Aldrich) ad libitum for 10 days (dose previously show to be effective for brain activity of the compound). On day 7 and 8 the animals received a single injection of 5-bromodeoxyuridine, 100 mg/kg i.p., respectively and were sacrificed on day 10 by means of cervical dislocation.
Group 2 received identical treatment except that the chow in this case contained 0.0025% T0901317. […] No correlation between weight gain, food intake or BrdU incorporation could be detected. […]
(§2) Brains were cut into 14-μm coronal sections using a cryostat-microtome. […] After 1 hour of washing, the BrdU-antibody complex was detected using 0.05% diaminobenzidine with 0.01% H2O2, and counterstained with Hematoxylin. […]
(§3) For all BrdU labeling experiments, three to six sections per animal were analyzed. BrdU-positive cells were counted along 2×250 micrometer strips of the lateral ventricle wall (including the ependymal cell layer and subventricular zone). […] The numbers of BrdU-positive cells are calculated per area (mm^2). The mean ± SEM were calculated. Differences between means were determined by one-way ANOVA.

cells in the LVW [5] = test: Intracerebroventricular infusion of TO-901317, BrdU incorporation in the lateral ventricle wall; type: in vivo, male Wistar rats; conditions: icv infusion 0.6 nmol/animal/day, 14 days, rat; calculated day concentration 0.2 μM
Protocol: 10 week old male Wistar rats maintained on a 12hr light/dark cycle with food and water ad libidum, were infused in the right lateral ventricle with TO-901317 (Sigma-Aldrich), using an Alzet pump (2002), 14 days at a daily dose of 0.6 nmol/animal/day (infused at a rate of 0.5 μl/hr; 50 μM solution). Bromodeoxyuridine (BrdU) (50 mg/ml) was also included in the infusion vehicle (0.9% saline containing 1 mg/ml mouse serum albumin (Sigma)) to enable measurement of proliferation by quantitation of BrdU incorporation in the DNA. Animals were sacrificed at day 14, perfused with PBS and the brains removed and frozen at −70° C. prior to sectioning for immumohistochemical analysis.
as §2, with “cryostat-microtome. The sections were thawed onto pretreated slides and fixed in 4% (wt/vol) paraformaldehyde/PBS for 10 min.” for “cryostat-microtome.”
as §3

[6] = Weight gain and food intake during oral administration; type: in vivo, C57BL/6J male mice; conditions: chow with 0.025% or 0.0025% compound, mouse
Protocol: as §1
Group 2 received identical treatment except that the chow in this case contained 0.0025% T0901317. Group 3 and 4 received identical treatments as groups 1 and 2, respectively, with the exception that these animals received 5-bromodeoxyuridine injections on day 1 and 2 after the initiation of the experiment and were sacrificed on day 4. Group 5 served as control and received chow without any T0901317 but identical to groups 1-4 received two daily injections of 5-bromodeoxyuridine 100 mg/kg i.p. and was sacrificed two days later. The mean daily intake was 4.25±0.13 (S.E.M.) g chow, and the mean weight of the animals 24.8±0.11 (S.E.M.) g during the cause of the experiment resulting in an average dose of 43 mg/kg/day for groups 1 and 3 (“High”), and an average dose of 4.3 mg/kg/day for groups 2 and 4 (“Low”). […] No correlation between weight gain, food intake or BrdU incorporation could be detected. […]

Compound	intracellular ATP levels, and hence cell number (adult mouse NSC proliferation or survival in vitro) [1]	irritant dermatitis (irritant dermatitis)	PLA2 enzymatic activity (phospholipase A2 (PLA2))	PLA2 mRNA (phospholipase A2 (PLA2))	neuronal differentiation measured as neurite outgrowth [2]	other results
C[C@H](CC[C@@H]1OC1(C)C)[C@H]1CC[C@H]2[C@@H]3CC=C4C[C@@H](O)CC[C@]4(C)[C@H]3CC[C@]12C [5-Cholesten-24(s), 25-epoxy-3b-ol]	mediates adult mouse NSC proliferation or survival in vitro					
CC(C)CC[C@@H](O)[C@@H](C)[C@H]1CC[C@H]2[C@@H]3CC=C4C[C@@H](O)CC[C@]4(C)[C@H]3CC[C@]12C [22(R)-hydroxycholesterol]		able to reduce irritant dermatitis	increased enzymatic activity	accumulation of PLA2 mRNA	induces neuronal differentiation	PLA2 promoter activity (phospholipase A2 (PLA2); transient transfection, in combination with 9-cis-retinoic acid): synergistically activated; beta-amyloid induced apoptosis [3]: prevention of beta-amyloid induced apoptosis
C[C@H](CCCC(C)(C)O)[C@H]1CC[C@H]2[C@@H]3CC=C4C[C@@H](O)CC[C@]4(C)[C@H]3CC[C@]12C [25-hydroxycholesterol]		able to reduce irritant dermatitis	increased enzymatic activity	accumulation of PLA2 mRNA		
O=C(O)Cc1cccc(OCCCN(Cc2cccc(C(F)(F)F)c2Cl)CC(c2ccccc2)c2ccccc2)c1 [GW3965]		able to reduce irritant dermatitis				
O=S(=O)(c1ccccc1)N(CC(F)(F)F)c1ccc(C(O)(C(F)(F)F)C(F)(F)F)cc1 [TO-901317]	mediates adult mouse NSC proliferation or survival in vitro					concentration-response relationship observed in vitro with cultured mouse NSC ([1]; Example 2, effective concentrations): 3 to 5 µM; incorporation of BrdU of cells in the LVW (cells in the LVW [4]): significantly decreased; also recorded: clearly effective; incorporation of BrdU in the LVW (cells in the LVW [5]): did not significantly change; also recorded: ineffective; weight gain or food intake [6]: No difference between groups
CCCCCCCCCCCCCCOc1ccc(C(=O)O)o1 [TOFA, 5-tetradecyloxy-2-furancarboxylic acid]					induces neuronal differentiation	
